The source of these data is US20260199284A1, “SPECIFIC VASH COMPOUNDS (SVC) INHIBITORS FOR HEART DISEASES” (MT ACT, priority 2023, published 2026).

Entries after “also recorded” stand apart in the source; their conditions may differ.

The target in assay [1] is T1, Carboxypeptidase A (CPA) (Homo sapiens, UniProt P15085).
T1 sequence (P15085 111-419): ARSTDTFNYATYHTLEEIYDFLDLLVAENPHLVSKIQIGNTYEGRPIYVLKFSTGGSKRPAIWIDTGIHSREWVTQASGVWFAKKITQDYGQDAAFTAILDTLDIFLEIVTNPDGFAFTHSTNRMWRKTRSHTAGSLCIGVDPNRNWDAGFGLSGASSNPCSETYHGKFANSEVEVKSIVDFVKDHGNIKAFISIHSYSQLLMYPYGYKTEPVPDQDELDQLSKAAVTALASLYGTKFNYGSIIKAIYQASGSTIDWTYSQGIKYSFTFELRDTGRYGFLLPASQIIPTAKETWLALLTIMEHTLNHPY
As to the kind of experiment: Carboxypeptidase A in vitro assay (western blot). Type of assay: biochemical. The conditions noted are these: selectivity control. An excerpt:
FIG. 6: In vitro detyrosination assays using recombinant human enzymes in absence or presence of SVC_01 or BzISA (specific carboxypeptidase A inhibitor). […] Reactions were stopped using SDS-page laemli buffer and loaded for western blotting using specific antibodies.
Below, the criteria for selection are detailed: • Protease with documented carboxypeptidase activity towards alpha tubulin. Carboxypeptidase A hydrolyzes peptide bonds of C-terminal residues with aromatic or aliphatic side-chains (FIG. 6). • Cysteine protease with preference for non-aromatic residues at P1′. The optimum recognition site for Human rhinovirus (HRV) type 14 3C protease is LEVLFQ/GP, with a glycine at the P1′ position (FIG. 7). • Cysteine protease with preference for aromatic residues at P1′ site. Alike VASH, cathepsin B prefers an aromatic residue at the P1′ position. This is considered to be our best control for specificity (FIG. 8)
(A western blot detects proteins with antibodies after separation by electrophoresis.)

Assay [2] concerns the target recombinant human VASH2 (Homo sapiens, UniProt Q86V25). As to the kind of experiment: In vitro detyrosination assay with recombinant human VASH2. Type of assay: biochemical. The conditions noted are these: increasing concentration. As to the method: FIG. 32: In vitro detyrosination assays using recombinant human VASH1 and VASH2 enzymes in presence of increasing concentration of SVC_01.
Specificity of SVC-01 was assayed using both human VASH1 and VASH2 recombinant enzymes. […] Finally, to ensure that regulation of other genes involved in the detyrosination-tyrosination cycle is not affected, we analysed gene expression of all relevant and associated genes following treatment with SVC-02 in adult human cardiomyocytes. We found no alteration of VASH1, VASH2, MATCAP, TTL or SVBP gene expression between vehicle control and SVC-02 treated cells (FIG. 34).

Assay [3] concerns primary cardiomyocytes isolated from ZSF1-Lean or ZSF1 Obese rats. As to the kind of experiment: Nanoindentation transverse stiffness. Type of assay: cell-based, rat. An excerpt: FIG. 17: Reduced transverse stiffness upon VASH inhibition or TTL overexpression in primary cardiomyocytes isolated from ZSF1-Lean or ZSF1 Obese rats. A) Stiffness (elastic modulus) plotted as a function of nanoindentation velocity in ZSF1-Lean and B) ZSF1-Obese myocytes. C) Quantification of Emin (elastic stiffness), Emax (stiffness at maximal velocity of indentation) and D) DeltaE (indicator of viscoelasticity) in ZSF1-Lean and Obese cardiomyocytes.
Mechanical properties at the microscopic scale were measured using nano-indentation (Piuma; Optics11, Amsterdam, The Netherlands) equipped with a dynamic mechanical analysis package (DMA). Freshly isolated cardiomyocytes were attached to glass-bottom dishes coated with MyoTak (IonOptix) in NT solution at 1 mM Ca2+. A spherical indentation probe with a radius of 4.5 μm and a stiffness of 0.1 N/m was used to indent the myocytes to a depth of 1-2 μm and the probe was then oscillated in a sinusoidal pattern at a frequency of 0.05, 0.1, 0.5, 1, 2, 5, 10, 20 and 50 Hz and an amplitude of 1 μm. The Piuma Data Viewer version 2.0 was used to convert DMA indentation depth and cantilever deflection into E′ and E″ and the magnitude of the elastic modulus was determined by E^2=E′^2+E″^2 A Poisson's ratio (n) of 0.5 was assumed and the average of E in each experimental condition was determined as a function of indentation speed. […]

For assay [4], the system named is Sprague Dawley rats. The assay is described as follows: Myocardial tubulin detyrosination after IV injection, western blot. Type of assay: in vivo, rat. The conditions noted are these: single injection IV, 8 weeks old Sprague Dawley rats. An excerpt: B) Quantification of detyrosination levels (D1/alpha-tubulin ratio) in vehicle (n=4) and VASHi-treated rats (n=3).
For efficacy testing we presented SVC_01 to primary cardiomyocytes isolated from Sprague Dawley rats. […] Next, we performed functional studies by measuring key cardiomyocytes parameters including resting, fractional shortening, contraction time and relaxation time. […] The ZSF1 rat model is a hybrid rat obtained by a cross between a ZDF female and an SHHF male rat. This model is an established HFpEF rat model. Obese ZSF1 (O—ZSF1) hybrid rats are compound heterozygote with two different mutated alleles coding defective leptin receptor, resulting in loss of the receptor function. Thus, these animals have increased food intake and develop pronounced features of obesity, diabetes, and resultant HFpEF. […] We performed a western blot analysis from myocardial tissue prepared from Wistar Kyoto (WKY), ZSF1 lean and ZSF1 obese rats (FIG. 14). In line with previously published data of the role of microtubule densification and tubulin detyrosination, we found an increase in both total tubulin as well as detyrosinated tubulin in myocardial tissue of ZSF1-obese rats compared to the lean and WKY controls. […] Similar results were observed by assessment of the transverse stiffness. […]

recombinant human VASH2, sequence (Q86V25 whole entry): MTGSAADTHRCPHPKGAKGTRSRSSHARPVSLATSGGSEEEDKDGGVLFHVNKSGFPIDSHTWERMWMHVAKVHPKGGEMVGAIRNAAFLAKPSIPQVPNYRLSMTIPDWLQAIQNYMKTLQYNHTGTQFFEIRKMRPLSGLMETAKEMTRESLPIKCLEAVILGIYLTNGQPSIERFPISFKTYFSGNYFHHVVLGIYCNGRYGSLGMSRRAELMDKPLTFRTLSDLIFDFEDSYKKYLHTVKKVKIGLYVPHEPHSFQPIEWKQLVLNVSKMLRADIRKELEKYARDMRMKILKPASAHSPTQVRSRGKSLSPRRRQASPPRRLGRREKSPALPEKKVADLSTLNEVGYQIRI

Consider `O=C(O)CCC[C@H](NC(=O)[C@H]1O[C@@H]1C(=O)C[C@@H](Cc1ccc(OCc2ccccc2)cc1)C(=O)O)C(=O)NCCc1ccccc1` [SVC_01], for which the “inhibition of Carboxypeptidase A” value in assay [1] was “No cross reactions observed”. The “inhibition of detyrosinating activity of recombinant human VASH2” value in assay [2] is reported as “efficiently inhibited; also recorded: efficient in inhibiting”. In assay [3], the transverse viscoelastic stiffness entry was “viscoelastic stiffness is reduced”.

In the case of `CCOC(=O)[C@H](Cc1ccc(OCC)cc1)NC(=O)[C@H]1O[C@@H]1C(=O)N[C@@H](Cc1ccc(OCC)cc1)C(=O)OCC` [SVC_02], the “detyrosinated tubulin in myocardial tissue” value in assay [4] was “efficient reduction in detyrosinated tubulin”.
